In patent US9512144B2, “Imidazothiazole sufonamides as nematicides” (BAYER CROPSCIENCE AKTIENGESELLSCHAFT, priority 2013, dated 2016):

Legend:
[1] = test system: Meloidogyne incognita; experiment: Meloidogyne incognita test: compound solution poured into pots with soil (loamy sand), salad seeds, gall formation after 21 days; assay type: in vivo; conditions: salad in soil
Protocol: Solvent: 7 parts by weight of dimethylformamide Emulsifier: 2.5 parts by weight of alkylarylpolyglycolether To produce a suitable preparation of active compound, 1 part by weight of active compound is mixed with the stated amount of solvent and emulsifier and is diluted with water to the desired concentration. In the calculation of the concentration the soil volume has to be included. […] Further test concentrations are prepared by dilution with water. The compound solution is poured into pots filled with soil (loamy sand). A suspension containing eggs and larvae of the southern root-knot nematode (Meloidogyne incognita) is added, salad seeds are spread on the soil surface and covered with quartz sand. The salad seeds germinate and the seedlings grow. Galls develop on the roots. After 21 days the nematicidal activity is determined on the basis of the percentage of gall formation. 100% means no galls were found; 0% means the number of galls found on the roots of the treated plants was equal to that in untreated control plants.

[2] = test system: Meloidogyne incognita; experiment: Meloidogyne incognita test (MELGIN): sand, salad seeds, gall formation after 14 days; assay type: in vivo; conditions: application rate 20 ppm, salad seedlings in sand
Protocol: Solvent: 125.0 parts by weight of acetone To produce a suitable preparation of active compound, 1 part by weight of active compound is mixed with the stated amount of solvent, and the concentrate is diluted with water to the desired concentration. Vessels are filled with sand, a solution of the active ingredient, a suspension containing eggs and larvae of the southern root-knot nematode (Meloidogyne incognita) and salad seeds. The salad seeds germinate and the seedlings grow. Galls develop in the roots. After 14 days the nematicidal activity is determined on the basis of the percentage of gall formation. 100% means that no galls were found; 0% means that the number of galls found on the roots of the treated plants was equal to that in untreated control plants.

Structure (SMILES)	nematicidal activity on the basis of the percentage of gall formation (100% = no galls) [2]	further results
CCCOc1ccc(Cl)c(S(=O)(=O)NC(=O)c2cn3cc(C(F)(F)F)sc3n2)c1 [Example I-1-207]	100%	nematicidal activity on the basis of the percentage of gall formation (100% = no galls) ([1]; application rate 4 ppm): 95%
Cc1c(C(F)(F)F)sc2nc(C(=O)NS(=O)(=O)c3ccccc3Cl)cn12 [Example I-1-154]	90%	nematicidal activity on the basis of the percentage of gall formation (100% = no galls) ([1]; application rate 4 ppm): 99%
Cc1ccc(Cl)cc1S(=O)(=O)NC(=O)c1cn2cc(C(F)(F)F)sc2n1 [Example I-1-8]	100%	nematicidal activity on the basis of the percentage of gall formation (100% = no galls) ([1]; application rate 4 ppm): 95%
O=C(NS(=O)(=O)c1ccccc1Br)c1cn2cc(C(F)(F)C(F)(F)F)sc2n1 [Example I-1-227]	100%	nematicidal activity on the basis of the percentage of gall formation (100% = no galls) ([1]; application rate 8 ppm): 100%
O=C(NS(=O)(=O)c1cc2c(cc1Cl)OC(F)(F)O2)c1cn2cc(C(F)(F)F)sc2n1 [Example I-1-12]	100%	nematicidal activity on the basis of the percentage of gall formation (100% = no galls) ([1]; application rate 8 ppm): 95%
CC(C)Oc1ccc(Cl)c(S(=O)(=O)NC(=O)c2cn3cc(C(F)(F)F)sc3n2)c1 [Example I-1-208]	100%	nematicidal activity on the basis of the percentage of gall formation (100% = no galls) ([1]; application rate 1 ppm): 90%
O=C(NS(=O)(=O)c1ccccc1F)c1cn2cc(C(F)(F)C(F)(F)F)sc2n1 [Example I-1-226]	100%	nematicidal activity on the basis of the percentage of gall formation (100% = no galls) ([1]; application rate 8 ppm): 80%
COc1ccc(Br)c(S(=O)(=O)NC(=O)c2cn3cc(C(F)(F)F)sc3n2)c1 [Example I-1-206]	100%	nematicidal activity on the basis of the percentage of gall formation (100% = no galls) ([1]; application rate 4 ppm): 100%
COc1ccc(Cl)c(S(=O)(=O)NC(=O)c2cn3cc(C(F)(F)F)sc3n2)c1 [Example I-1-1, N-[(2-chloro-5-methoxyphenyl)sulfonyl]-2-(trifluoromethyl)imidazo[2,1-b][1,3]thiazole-6-carboxamide]	100%	nematicidal activity on the basis of the percentage of gall formation (100% = no galls) ([1]; application rate 2 ppm): 95%
COc1ccc(F)c(S(=O)(=O)NC(=O)c2cn3cc(C(F)(F)F)sc3n2)c1 [Example I-1-27]	100%	nematicidal activity on the basis of the percentage of gall formation (100% = no galls) ([1]; application rate 2 ppm): 80%
COc1ccc(Cl)c(S(=O)(=O)NC(=O)c2cn3c(C)c(C(F)(F)C(F)(F)F)sc3n2)c1 [Example I-1-251]	100%	nematicidal activity on the basis of the percentage of gall formation (100% = no galls) ([1]; application rate 8 ppm): 98%
Cc1c(C(F)(F)C(F)(F)F)sc2nc(C(=O)NS(=O)(=O)c3c(Cl)cccc3Cl)cn12 [Example I-1-254]	100%	nematicidal activity on the basis of the percentage of gall formation (100% = no galls) ([1]; application rate 8 ppm): 85%
O=C(NS(=O)(=O)c1c(Cl)cccc1Cl)c1cn2cc(C(F)(F)F)sc2n1 [Example I-1-10]	100%	nematicidal activity on the basis of the percentage of gall formation (100% = no galls) ([1]; application rate 8 ppm): 98%
Cc1ccc(C)c(S(=O)(=O)NC(=O)c2cn3c(C)c(C(F)(F)F)sc3n2)c1 [Example I-1-291]	100%	nematicidal activity on the basis of the percentage of gall formation (100% = no galls) ([1]; application rate 4 ppm): 85%
O=C(NS(=O)(=O)c1ccccc1Cl)c1cn2cc(C(F)(F)F)sc2n1 [Example I-1-3]	100%	nematicidal activity on the basis of the percentage of gall formation (100% = no galls) ([1]; application rate 2 ppm): 95%
Cc1c(C(F)(F)C(F)(F)F)sc2nc(C(=O)NS(=O)(=O)c3ccccc3Cl)cn12 [Example I-1-255]	100%	nematicidal activity on the basis of the percentage of gall formation (100% = no galls) ([1]; application rate 8 ppm): 100%
O=C(NS(=O)(=O)c1c(Cl)cccc1Cl)c1cn2cc(C(F)(F)C(F)(F)F)sc2n1 [Example I-1-146]	100%	nematicidal activity on the basis of the percentage of gall formation (100% = no galls) ([1]; application rate 8 ppm): 90%
O=C(NS(=O)(=O)c1ccccc1OC(F)(F)F)c1cn2cc(C(F)(F)C(F)(F)F)sc2n1 [Example I-1-234]	100%	–
CCc1ccc(CC)c(S(=O)(=O)NC(=O)c2cn3cc(C(F)(F)F)sc3n2)c1 [Example I-1-305]	100%	–
COc1ccc(Br)c(S(=O)(=O)NC(=O)c2cn3cc(C(F)(F)C(F)(F)F)sc3n2)c1 [Example I-1-243]	100%	nematicidal activity on the basis of the percentage of gall formation (100% = no galls) ([1]; application rate 8 ppm): 95%
COc1ccc(Cl)c(S(=O)(=O)NC(=O)c2nc3sc(C(F)(F)F)cn3c2Br)c1 [Example I-3-2]	100%	–
CC(C)(C)c1cn2cc(C(=O)NS(=O)(=O)c3ccccc3Cl)nc2s1 [Example I-1-16]	100%	–
O=C(NS(=O)(=O)c1ccccc1Cl)c1nc2sc(C(F)(F)F)cn2c1Br [Example I-3-1]	100%	–

Structure (SMILES)	nematicidal activity on the basis of the percentage of gall formation (100% = no galls) [2]	further results
O=C(NS(=O)(=O)c1cc(C(F)(F)F)ccc1Br)c1cn2cc(C(F)(F)C(F)(F)F)sc2n1 [Example I-1-223]	100%	nematicidal activity on the basis of the percentage of gall formation (100% = no galls) ([1]; application rate 4 ppm): 80%
Cc1c(C(F)(F)F)sc2nc(C(=O)NS(=O)(=O)c3cccc(Cl)c3)cn12 [Example I-1-155]	100%	–
O=C(NS(=O)(=O)c1cc(C(F)(F)F)ccc1Br)c1cn2cc(C(F)(F)F)sc2n1 [Example I-1-5]	100%	nematicidal activity on the basis of the percentage of gall formation (100% = no galls) ([1]; application rate 4 ppm): 90%
Cc1c(C(F)(F)F)sc2nc(C(=O)NS(=O)(=O)c3cc(C(F)(F)F)ccc3Cl)cn12 [Example I-1-289]	100%	nematicidal activity on the basis of the percentage of gall formation (100% = no galls) ([1]; application rate 4 ppm): 85%
O=C(NS(=O)(=O)c1ccccc1Cl)c1nc2sc(C(F)(F)F)cn2c1I [Example I-3-5]	100%	–
O=C(NS(=O)(=O)c1cc(Br)ccc1Cl)c1cn2cc(C(F)(F)F)sc2n1 [Example I-1-209]	100%	nematicidal activity on the basis of the percentage of gall formation (100% = no galls) ([1]; application rate 4 ppm): 90%
O=C(NS(=O)(=O)c1cc(Cl)ccc1Cl)c1cn2cc(Cl)sc2n1 [Example I-1-18]	90%	–
COc1ccc(Cl)c(S(=O)(=O)NC(=O)c2cn3cc(Cl)sc3n2)c1 [Example I-1-19]	100%	–
COc1ccc(Cl)c(S(=O)(=O)NC(=O)c2cn3cc(Br)sc3n2)c1 [Example I-1-60]	100%	–
O=C(NS(=O)(=O)c1ccc(Br)c(Cn2cccn2)c1)c1cn2cc(C(F)(F)F)sc2n1 [Example I-1-275]	90%	–
O=C(NS(=O)(=O)c1cccc(Cl)c1Cl)c1cn2cc(C(F)(F)C(F)(F)F)sc2n1 [Example I-1-236]	100%	–
COc1ccc(Cl)c(S(=O)(=O)NC(=O)c2cn3cc(C(C)(C)C)sc3n2)c1 [Example I-1-23]	100%	–
O=C(NS(=O)(=O)c1cc(Cl)ccc1Cl)c1cn2cc(C(F)(F)F)sc2n1 [Example I-1-6]	100%	–
O=C(NS(=O)(=O)c1c(F)cccc1F)c1cn2cc(Cl)sc2n1 [Example I-1-20]	100%	–
Cc1c(C(F)(F)F)sc2nc(C(=O)NS(=O)(=O)c3ccc(Cl)cc3)cn12 [Example I-1-156]	90%	–
O=C(NS(=O)(=O)c1ccccc1Cl)c1nc2sc(C(F)(F)F)cn2c1Cl [Example I-3-3]	100%	–
O=C(NS(=O)(=O)c1ccc(Br)c(Cn2cccn2)c1)c1cn2cc(C(F)(F)C(F)(F)F)sc2n1 [Example I-1-293]	100%	–
CC(C)(C)c1cn2cc(C(=O)NS(=O)(=O)c3cc(Cl)ccc3Cl)nc2s1 [Example I-1-15]	100%	–
N#Cc1ccc(Cl)c(S(=O)(=O)NC(=O)c2cn3cc(C(F)(F)F)sc3n2)c1 [Example I-1-310]	90%	–
O=C(NS(=O)(=O)c1cc(Br)ccc1Br)c1cn2cc(C(F)(F)F)sc2n1 [Example I-1-312]	100%	–
COc1ccc(Cl)c(S(=O)(=O)NC(=O)c2nc3sc(C(F)(F)F)cn3c2Cl)c1 [Example I-3-4]	100%	–
CSc1cn2cc(C(=O)NS(=O)(=O)c3ccccc3Cl)nc2s1 [Example I-1-298]	100%	–
